For test [1], the target named is T1, PI3Kγ (p120γ) (Homo sapiens, UniProt P48736).
T1 construct: purchased Promega V1761
Kind of test: Inhibition of PI3K kinase activity (ADP Glo), PI3Kγ. To be noted: read-out: biochemical potency (PI3Kγ IC50). An outline of the steps: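 IC50 values come from a 4-parameter nonlinear fit of ADP-Glo luminescence, which measures ADP produced as PIP2 is phosphorylated to PIP3. The p120γ enzyme (2× stock 8 nM) sat with compound 1 h at rt before substrate (2× stocks: 50 μM ATP, 0.1 mg/ml PIP2) was added. Phosphorylation then proceeded 60 min at rt.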

The target of test [2] is T2, PI3Kγ (Homo sapiens, UniProt P48736).
T2 construct: host or cells: THP-1
Kind of test: PI3Kγ cellular assay in THP-1 cells (AKT pS473 AlphaLISA). The format is cell-based. An outline of the steps: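 Endogenous AKT S473 phosphorylation, detected by AlphaLISA in lysates, serves as the PI3Kγ activity read-out in stimulated, serum-starved THP-1 cells (1.8×10^5/well).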
(In general: Alpha assays give light when donor and acceptor beads are brought close together.)

Where [3] appears, read: Table 1, rhMCP-1 stimulated AKT pS473, read-out: cellular potency (PI3Kγ IC50).
[4] abbreviates: Table 6, rhMCP-1 stimulated AKT pS473, read-out: cellular potency (PI3Kγ IC50).
Setting [5] is: Table 3, rhMCP-1 stimulated AKT pS473, read-out: cellular potency (PI3Kγ IC50).
Setting [6] is: Table 2, rhMCP-1 stimulated AKT pS473, read-out: cellular potency (PI3Kγ IC50).
The mark [7] stands for this setting: AKT pS473, read-out: cellular potency (PI3Kγ IC50).

Where two headings read alike, the source gives them in different places.

The record followed here is patent publication US20230024302A1, “2,3,5-TRISUBSTITUTED PYRAZOLO[1,5-A]PYRIMIDINE COMPOUNDS” (Arcus Biosciences, Inc., priority 2019, published 2023).

What is called IC50 is the concentration at which inhibition is half-maximal.

T2 sequence (P48736 whole entry): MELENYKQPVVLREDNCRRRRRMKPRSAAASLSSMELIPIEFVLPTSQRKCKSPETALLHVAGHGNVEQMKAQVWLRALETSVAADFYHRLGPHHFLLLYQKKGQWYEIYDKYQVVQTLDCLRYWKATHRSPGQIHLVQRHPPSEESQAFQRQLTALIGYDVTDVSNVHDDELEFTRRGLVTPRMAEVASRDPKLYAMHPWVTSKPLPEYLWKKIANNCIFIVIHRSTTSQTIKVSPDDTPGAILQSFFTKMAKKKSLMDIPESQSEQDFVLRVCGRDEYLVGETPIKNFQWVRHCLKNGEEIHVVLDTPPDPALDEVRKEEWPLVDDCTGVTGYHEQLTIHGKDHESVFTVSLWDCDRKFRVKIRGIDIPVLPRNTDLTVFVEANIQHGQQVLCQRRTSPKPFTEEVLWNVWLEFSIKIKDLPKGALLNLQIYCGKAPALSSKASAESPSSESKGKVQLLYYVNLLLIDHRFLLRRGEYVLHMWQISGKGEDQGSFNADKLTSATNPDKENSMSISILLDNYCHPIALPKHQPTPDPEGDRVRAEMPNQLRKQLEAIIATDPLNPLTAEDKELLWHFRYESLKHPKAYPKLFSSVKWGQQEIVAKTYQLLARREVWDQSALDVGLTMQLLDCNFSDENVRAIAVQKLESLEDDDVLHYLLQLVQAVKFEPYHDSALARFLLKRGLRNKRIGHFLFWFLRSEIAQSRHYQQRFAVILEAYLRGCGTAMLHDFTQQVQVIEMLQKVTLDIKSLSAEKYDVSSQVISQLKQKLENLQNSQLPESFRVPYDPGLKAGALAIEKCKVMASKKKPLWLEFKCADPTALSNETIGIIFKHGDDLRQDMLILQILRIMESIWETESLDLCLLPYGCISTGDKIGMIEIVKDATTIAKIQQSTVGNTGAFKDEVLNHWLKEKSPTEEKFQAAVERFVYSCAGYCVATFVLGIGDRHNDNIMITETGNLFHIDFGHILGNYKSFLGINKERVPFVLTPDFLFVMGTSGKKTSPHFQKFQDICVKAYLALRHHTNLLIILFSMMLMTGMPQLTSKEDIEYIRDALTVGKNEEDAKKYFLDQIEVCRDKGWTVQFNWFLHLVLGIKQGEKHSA
T1 sequence (P48736 whole entry): as above

For the molecule `C[C@@H](C1CC1)N1Cc2cc(-c3ccn4nc(N)c(C(=O)N[C@H]5C[C@@](C)(O)C5)c4n3)cc(OC(F)(F)F)c2C1=O` [Example 23, 2-Amino-5-{2-[(1S)-1-cyclopropylethyl]-1-oxo-7-(trifluoromethoxy)-2,3-dihydro-1H-isoindol-5-yl}-N-[cis-3-hydroxy-3-methylcyclobutyl]pyrazolo[1,5-a]pyrimidine-3-carboxamide], the IC50 is under 100 nM in test [1] (Table 1, p120γ) and under 100 nM in test [2] (setting [3]).
For `C[C@@H](C1CC1)N1Cc2cc(-c3ccn4nc(N)c(C(=O)N[C@H]5CC[C@@](C)(O)CC5)c4n3)cc(S(C)(=N)=O)c2C1=O` (stereo partly drawn) [Example 448], the half-maximal inhibitory concentration (IC50) is under 100 nM in test [1] (Table 6, p120γ) and 100 to 1000 nM in test [2] (setting [4]).
Turning to `C[C@@H](C1CC1)N1Cc2cc(-c3ccn4nc(N)c(C(=O)Nc5cncc(F)c5)c4n3)cc(C(F)(F)F)c2C1=O` [Example 351], the IC50 in test [1] (Table 3, p120γ) is under 100 nM; in test [2] (setting [5]), 100 to 1000 nM.
Regarding `Cc1cc(-c2ccn3nc(N)c(C(=O)NC[C@@H]4CCOC4)c3n2)cc2c1C(=O)N([C@@H](C)C1CC1)C2` [Example 238], the IC50 was under 100 nM in test [1] (Table 2, p120γ) and 100 to 1000 nM in test [2] (setting [6]).
The matching figures for `Cc1cc(-c2ccn3nc(N)c(C(=O)NC[C@H]4CCOC4)c3n2)cc2c1C(=O)N([C@@H](C)C1CC1)C2` [Example 257]: under 100 nM and 100 to 1000 nM.
As to `C[C@@H](C1CC1)N1Cc2cc(-c3ccn4nc(N)c(C(=O)NC5CC5)c4n3)cc(OC(F)(F)F)c2C1=O` [Example 20, 2-Amino-N-cyclopropyl-5-{2-[(1S)-1-cyclopropylethyl]-1-oxo-7-(trifluoromethoxy)-2,3-dihydro-1H-isoindol-5-yl}pyrazolo[1,5-a]pyrimidine-3-carboxamide], the IC50 in test [1] (Table 1, p120γ) was under 100 nM; in test [2] (setting [3]), under 100 nM.
With `C[C@@H](C1CC1)N1Cc2cc(-c3ccn4nc(N)c(C(=O)Nc5ccc(Cl)cc5)c4n3)cc(NS(C)(=O)=O)c2C1=O` [Example 392], the values for the IC50 in test [1] and in test [2] (setting [7]) were under 100 nM and over 1000 nM, respectively.
Regarding `Cc1cc(-c2ccn3nc(N)c(C(=O)N[C@@H]4CCOC4)c3n2)cc2c1C(=O)N([C@@H](C)C1CC1)C2` [Example 176], the concentration for half-maximal inhibition (IC50) in test [1] (Table 2, p120γ) is under 100 nM; in test [2] (setting [6]), 100 to 1000 nM.
On to `Cc1cc(-c2ccn3nc(N)c(C(=O)N[C@@H]4CCC[C@@H](O)C4)c3n2)cc2c1C(=O)N([C@@H](C)C1CC1)C2` [Example 11, 2-Amino-5-{2-[(1S)-1-cyclopropylethyl]-7-methyl-1-oxo-2,3-dihydro-1H-isoindol-5-yl}-N-[(1R,3R)-3-hydroxycyclohexyl]pyrazolo[1,5-a]pyrimidine-3-carboxamide], for which the half-inhibitory concentration (IC50) in test [1] (Table 1, p120γ) is under 100 nM; in test [2] (setting [3]), under 100 nM.
On to `COCC(C)(C)NC(=O)c1c(N)nn2ccc(-c3cc4c(c(NS(C)(=O)=O)c3)C(=O)N([C@@H](C)C3CC3)C4)nc12` [Example 390], for which the IC50 in test [1] was under 100 nM; in test [2] (setting [7]), 100 to 1000 nM.
As to `CC[C@@H](CO)N1Cc2cc(-c3ccn4nc(N)c(C(=O)NC5CC5)c4n3)cc(C)c2C1=O` [Example 309], the half-inhibitory concentration (IC50) is under 100 nM in test [1] (Table 2, p120γ) and 100 to 1000 nM in test [2] (setting [6]).
Consider `Cc1cc(-c2ccn3nc(N)c(C(=O)N[C@H]4CCC[C@@H](O)C4)c3n2)cc2c1C(=O)N([C@@H](C)C1CC1)C2` [Example 9, 2-Amino-5-{2-[(1S)-1-cyclopropylethyl]-7-methyl-1-oxo-2,3-dihydro-1H-isoindol-5-yl}-N-[(1S,3R)-3-hydroxycyclohexyl]pyrazolo[1,5-a]pyrimidine-3-carboxamide], for which the 50% inhibitory concentration (IC50) was under 100 nM in test [1] (Table 1, p120γ) and under 100 nM in test [2] (setting [3]).
As to `C[C@@H](C1CC1)N1Cc2cc(-c3ccn4nc(N)c(C(=O)Nc5ccc(=O)[nH]c5)c4n3)cc(NS(C)(=O)=O)c2C1=O` [Example 371], the 50% inhibitory concentration (IC50) in test [1] was under 100 nM; in test [2] (setting [7]) it was 100 to 1000 nM.
For the molecule `CCS(=O)(=O)Nc1cc(-c2ccn3nc(N)c(C(=O)NC4CC4)c3n2)cc2c1C(=O)N([C@@H](C)C1CC1)C2` [Example 110, 2-Amino-N-cyclopropyl-5-{2-[(1S)-1-cyclopropylethyl]-7-ethanesulfonamido-1-oxo-2,3-dihydro-1H-isoindol-5-yl}pyrazolo[1,5-a]pyrimidine-3-carboxamide], the IC50 in test [1] (Table 1, p120γ) was under 100 nM; in test [2] (setting [3]) it was under 100 nM.
Regarding `COC[C@@H](C)NC(=O)c1c(N)nn2ccc(-c3cc4c(c(NS(C)(=O)=O)c3)C(=O)N([C@@H](C)C3CC3)C4)nc12` [Example 385], the results for the half-maximal inhibitory concentration (IC50) in test [1] and in test [2] (setting [7]) were under 100 nM and 100 to 1000 nM, respectively.
Take `Cc1cc(-c2ccn3nc(N)c(C(=O)N[C@H](C(N)=O)c4ccccc4)c3n2)cc2c1C(=O)N([C@@H](C)C1CC1)C2` [Example 286]: the IC50 in test [1] (Table 2, p120γ) is 100 to 1000 nM; in test [2] (setting [6]), over 1000 nM.
Regarding `C[C@@H](C1CC1)N1Cc2cc(-c3ccn4nc(N)c(C(=O)NC5CC5)c4n3)cc(O[C@H](C)C(F)(F)F)c2C1=O` [Example 442], the IC50 is under 100 nM in test [1] (Table 6, p120γ) and 100 to 1000 nM in test [2] (setting [4]).
As to `CNS(=O)(=O)c1cc(-c2ccn3nc(N)c(C(=O)Nc4cnn(C)c4)c3n2)cc2c1C(=O)N([C@@H](C)C1CC1)C2` [Example 140, 2-Amino-5-{2-[(1S)-1-cyclopropylethyl]-7-(methylsulfamoyl)-1-oxo-2,3-dihydro-1H-isoindol-5-yl}-N-(1-methyl-1H-pyrazol-4-yl)pyrazolo[1,5-a]pyrimidine-3-carboxamide], the IC50 is under 100 nM in test [1] (Table 1, p120γ) and under 100 nM in test [2] (setting [3]).
Regarding `COc1cncc(NC(=O)c2c(N)nn3ccc(-c4cc5c(c(C(F)(F)F)c4)C(=O)N([C@@H](C)C4CC4)C5)nc23)c1` [Example 355], the IC50 was under 100 nM in test [1] (Table 3, p120γ) and 100 to 1000 nM in test [2] (setting [5]).
In the same order, the values of `COC[C@@H](C)NC(=O)c1c(N)nn2ccc(-c3cc4c(c(C(F)(F)F)c3)C(=O)N([C@@H](C)C3CC3)C4)nc12` [Example 339] are under 100 nM and 100 to 1000 nM.
Turning to `CC(C)NS(=O)(=O)c1cc(-c2ccn3nc(N)c(C(=O)NC4CC4)c3n2)cc2c1C(=O)N([C@@H](C)C1CC1)C2` [Example 446], the 50% inhibitory concentration (IC50) is under 100 nM in test [1] (Table 6, p120γ) and 100 to 1000 nM in test [2] (setting [4]).
The matching figures for `C[C@@H](C1CC1)N1Cc2cc(-c3ccn4nc(N)c(C(=O)Nc5cccc(C(C)(C)O)c5)c4n3)cc(OC(F)(F)F)c2C1=O` [Example 420]: under 100 nM and 100 to 1000 nM.
As for `COCCS(=O)(=O)Nc1cc(-c2ccn3nc(N)c(C(=O)NC4CC4)c3n2)cc2c1C(=O)N([C@@H](C)C1CC1)C2` [Example 113, 2-Amino-N-cyclopropyl-5-{2-[(1S)-1-cyclopropylethyl]-7-(2-methoxyethanesulfonamido)-1-oxo-2,3-dihydro-1H-isoindol-5-yl}pyrazolo[1,5-a]pyrimidine-3-carboxamide], the IC50 in test [1] (Table 1, p120γ) was under 100 nM; in test [2] (setting [3]), under 100 nM.
As for `Cc1cc(-c2ccn3nc(N)c(C(=O)NC4CC4)c3n2)cc2c1C(=O)N(C1CC1)C2` [Example 303], the half-maximal inhibitory concentration (IC50) in test [1] (Table 2, p120γ) is under 100 nM; in test [2] (setting [6]) it was 100 to 1000 nM.
For the molecule `Cc1cc(-c2ccn3nc(N)c(C(=O)NCC4COC4)c3n2)cc2c1C(=O)N([C@@H](C)C1CC1)C2` [Example 226], the IC50 in test [1] (Table 2, p120γ) is under 100 nM; in test [2] (setting [6]), 100 to 1000 nM.
On to `C[C@@H](C1CC1)N1Cc2cc(-c3ccn4nc(N)c(C(=O)N[C@H]5CC[C@H](N)CC5)c4n3)cc(C(F)(F)F)c2C1=O` [Example 368], for which the IC50 was under 100 nM in test [1] (Table 3, p120γ) and 100 to 1000 nM in test [2] (setting [5]).
Turning to `C[C@@H](C1CC1)N1Cc2cc(-c3ccn4nc(N)c(C(=O)N[C@H]5CNC(=O)C5)c4n3)cc(C(F)(F)F)c2C1=O` [Example 64, 2-Amino-5-{2-[(1S)-1-cyclopropylethyl]-1-oxo-7-(trifluoromethyl)-2,3-dihydro-1H-isoindol-5-yl}-N-[(3R)-5-oxopyrrolidin-3-yl]pyrazolo[1,5-a]pyrimidine-3-carboxamide], the IC50 was under 100 nM in test [1] (Table 1, p120γ) and under 100 nM in test [2] (setting [3]).
As to `CNC(=O)c1c(N)nn2ccc(-c3cc4c(c(NS(C)(=O)=O)c3)C(=O)N([C@@H](C)C3CC3)C4)nc12` [Example 73, 2-Amino-5-{2-[(1S)-1-cyclopropylethyl]-7-methanesulfonamido-1-oxo-2,3-dihydro-1H-isoindol-5-yl}-N-methylpyrazolo[1,5-a]pyrimidine-3-carboxamide], the IC50 is under 100 nM in test [1] (Table 1, p120γ) and under 100 nM in test [2] (setting [3]).
`Cc1cc(-c2ccn3nc(N)c(C(=O)NC4CCN(C)CC4)c3n2)cc2c1C(=O)N([C@@H](C)C1CC1)C2` [Example 209]: the 50% inhibitory concentration (IC50) was under 100 nM in test [1] (Table 2, p120γ) and 100 to 1000 nM in test [2] (setting [6]).
In the same order, the values of `Cc1cc(-c2ccn3nc(N)c(C(=O)NC4CC4)c3n2)cc2c1C(=O)N([C@H]1CCC[C@H](O)C1)C2` [Example 327] are under 100 nM and 100 to 1000 nM.
`C[C@@H](C1CC1)N1Cc2cc(-c3ccn4nc(N)c(C(=O)NCCS(C)(=O)=O)c4n3)cc(C(F)(F)F)c2C1=O` [Example 337]: the 50% inhibitory concentration (IC50) in test [1] (Table 3, p120γ) is under 100 nM; in test [2] (setting [5]), 100 to 1000 nM.
In the same order, the values of `C[C@@H](C1CC1)N1Cc2cc(-c3ccn4nc(N)c(C(=O)NC(C)(C)CO)c4n3)cc(C(F)(F)F)c2C1=O` [Example 335] are under 100 nM and 100 to 1000 nM.
In the same order, the values of `C[C@@H](O)CCNC(=O)c1c(N)nn2ccc(-c3cc4c(c(C(F)(F)F)c3)C(=O)N([C@@H](C)C3CC3)C4)nc12` [Example 341] are under 100 nM and 100 to 1000 nM.
